# From ChEMBL document CHEMBL4699621, “Novel piperazine-2,5-dione analogs bearing 1H-indole: Synthesis and biological effects” (Bioorg Med Chem Lett, 2020)
# Tested on: Mus musculus
# Test: Analgesic activity in mouse assessed as inhibition of acetic acid-induced writhing at 10 mg/kg, ip measured after 60 mins relative to control
# Format: functional
# Set-up: scale not given: the % may be the effect or the level left
# Settings: 1 h
row,SMILES,Activity [%]
1,COc1ccc2[nH]c(CC3NC(=O)C(C)NC3=O)cc2c1 (stereo not given),53.2
2,CC1NC(=O)C(Cc2cc3cc(N(C)C)ccc3[nH]2)NC1=O (stereo not given),50.9
3,CC1NC(=O)C(Cc2cc3cc([N+](=O)[O-])ccc3[nH]2)NC1=O (stereo not given),66.8
4,CC1NC(=O)C(Cc2cc3cc(Cl)ccc3[nH]2)NC1=O (stereo not given),87.5
5,Cc1ccc2[nH]c(CC3NC(=O)C(C)NC3=O)cc2c1 (stereo not given),55.2
6,Cc1ccc2cc(CC3NC(=O)C(C)NC3=O)[nH]c2c1 (stereo not given),79.3
7,COc1ccc2c(c1)c(CC(=O)O)c(C)n2C(=O)c1ccc(Cl)cc1 [INDOMETHACIN],88.7
8,CC1NC(=O)C(Cc2cc3ccc(F)cc3[nH]2)NC1=O (stereo not given),77.8
9,CC1NC(=O)C(Cc2cc3cc(Cl)c(Cl)cc3[nH]2)NC1=O (stereo not given),82.5
10,CC1NC(=O)C(Cc2cc3ccc(N(C)C)cc3[nH]2)NC1=O (stereo not given),60.1
11,Cc1cc2cc(CC3NC(=O)C(C)NC3=O)[nH]c2cc1C (stereo not given),54.3
12,CC1NC(=O)C(Cc2cc3cc(F)ccc3[nH]2)NC1=O (stereo not given),90.2
13,COc1ccc2cc(CC3NC(=O)C(C)NC3=O)[nH]c2c1 (stereo not given),65
14,CC1NC(=O)C(Cc2cc3ccccc3[nH]2)NC1=O (stereo not given),51.6
15,COc1cc2cc(CC3NC(=O)C(C)NC3=O)[nH]c2cc1OC (stereo not given),58.9
16,CC1NC(=O)C(Cc2cc3cc(Br)ccc3[nH]2)NC1=O (stereo not given),70.2
17,CC1NC(=O)C(Cc2cc3ccc(Cl)cc3[nH]2)NC1=O (stereo not given),65.4
18,CC1NC(=O)C(Cc2cc3ccc(Br)cc3[nH]2)NC1=O (stereo not given),62.8
19,CC1NC(=O)C(Cc2cc3cc(C(F)(F)F)ccc3[nH]2)NC1=O (stereo not given),88.9

# Tested on: Mus musculus
# Test: Anti-inflammatory activity against dimethylbenzene-induced ear edema mouse model assessed as inhibition of ear edema at 10 mg/kg, ip measured after 60 mins relative to control
# Format: functional
# Set-up: scale not given: the % may be the effect or the level left
# Settings: 1 h
row,SMILES,Activity [%]
1,CC1NC(=O)C(Cc2cc3cc(Cl)ccc3[nH]2)NC1=O (stereo not given),89.8
2,Cc1ccc2[nH]c(CC3NC(=O)C(C)NC3=O)cc2c1 (stereo not given),85
3,Cc1ccc2cc(CC3NC(=O)C(C)NC3=O)[nH]c2c1 (stereo not given),83.3
4,COc1ccc2c(c1)c(CC(=O)O)c(C)n2C(=O)c1ccc(Cl)cc1 [INDOMETHACIN],84.8
5,CC1NC(=O)C(Cc2cc3ccc(F)cc3[nH]2)NC1=O (stereo not given),90
6,CC1NC(=O)C(Cc2cc3cc(Cl)c(Cl)cc3[nH]2)NC1=O (stereo not given),87.2
7,CC1NC(=O)C(Cc2cc3cc(F)ccc3[nH]2)NC1=O (stereo not given),91.2
8,CC1NC(=O)C(Cc2cc3ccc(Cl)cc3[nH]2)NC1=O (stereo not given),87.2
9,CC1NC(=O)C(Cc2cc3cc(C(F)(F)F)ccc3[nH]2)NC1=O (stereo not given),93.5

# Molecular target: 5-HT3 receptor (Cavia porcellus)
# Test: Antagonist activity against 5-H3R in guinea pig ileum preincubated for 10 mins followed by 2-methyl 5-HT addition
# Settings: read-out: pA2 (converted)
row,SMILES,Kb [nM]
1,Cc1ccccc1N1CCN(C(=O)C2Cc3ccccc3N2C)CC1 (stereo not given),31.6

# Tested on: Mus musculus
# Test: Antidepressant activity in mouse assessed as decrease in immobility time at 10 mg/kg, ip by forced swimming test relative to control
# Format: functional
# Set-up: scale not given: the % may be the effect or the level left
# Settings: not given
row,SMILES,Activity [%]
1,CNCCC(Oc1ccc(C(F)(F)F)cc1)c1ccccc1 (stereo not given) [FLUOXETINE],67.9
2,CC1NC(=O)C(Cc2cc3cc(Cl)c(Cl)cc3[nH]2)NC1=O (stereo not given),71.2
3,CC1NC(=O)C(Cc2cc3cc(C(F)(F)F)ccc3[nH]2)NC1=O (stereo not given),70.2

# Tested on: Mus musculus
# Test: Antidepressant activity in mouse assessed as decrease in immobility time at 10 mg/kg, ip by forced swimming test (reference value: 147.8 +/- 10.2 sec)
# Format: functional
# Settings: not given
row,SMILES,Time [s]
1,COc1ccc2[nH]c(CC3NC(=O)C(C)NC3=O)cc2c1 (stereo not given),67.3
2,CC1NC(=O)C(Cc2cc3cc(N(C)C)ccc3[nH]2)NC1=O (stereo not given),91.3
3,CC1NC(=O)C(Cc2cc3cc([N+](=O)[O-])ccc3[nH]2)NC1=O (stereo not given),88.6
4,CC1NC(=O)C(Cc2cc3cc(Cl)ccc3[nH]2)NC1=O (stereo not given),64.8
5,Cc1ccc2[nH]c(CC3NC(=O)C(C)NC3=O)cc2c1 (stereo not given),53.5
6,CNCCC(Oc1ccc(C(F)(F)F)cc1)c1ccccc1 (stereo not given) [FLUOXETINE],47.4
7,Cc1ccc2cc(CC3NC(=O)C(C)NC3=O)[nH]c2c1 (stereo not given),58.2
8,CC1NC(=O)C(Cc2cc3ccc(F)cc3[nH]2)NC1=O (stereo not given),52.8
9,CC1NC(=O)C(Cc2cc3cc(Cl)c(Cl)cc3[nH]2)NC1=O (stereo not given),42.5
10,CC1NC(=O)C(Cc2cc3ccc(N(C)C)cc3[nH]2)NC1=O (stereo not given),95.1
11,Cc1cc2cc(CC3NC(=O)C(C)NC3=O)[nH]c2cc1C (stereo not given),87.2
12,CC1NC(=O)C(Cc2cc3cc(F)ccc3[nH]2)NC1=O (stereo not given),53.1
13,COc1ccc2cc(CC3NC(=O)C(C)NC3=O)[nH]c2c1 (stereo not given),77.2
14,CC1NC(=O)C(Cc2cc3ccccc3[nH]2)NC1=O (stereo not given),93.3
15,COc1cc2cc(CC3NC(=O)C(C)NC3=O)[nH]c2cc1OC (stereo not given),98
16,CC1NC(=O)C(Cc2cc3cc(Br)ccc3[nH]2)NC1=O (stereo not given),79.4
17,CC1NC(=O)C(Cc2cc3ccc(Cl)cc3[nH]2)NC1=O (stereo not given),66.8
18,CC1NC(=O)C(Cc2cc3ccc(Br)cc3[nH]2)NC1=O (stereo not given),76.8
19,CC1NC(=O)C(Cc2cc3cc(C(F)(F)F)ccc3[nH]2)NC1=O (stereo not given),44

# Tested on: Mus musculus
# Test: Anti-inflammatory activity against dimethylbenzene-induced ear edema mouse model assessed as inhibition of ear edema at 10 mg/kg, ip measured after 60 mins (reference value: 6.93 +/- 1.05 mg)
# Format: functional
# Settings: 1 h
row,SMILES,Activity [mg]
1,COc1ccc2[nH]c(CC3NC(=O)C(C)NC3=O)cc2c1 (stereo not given),1.41
2,CC1NC(=O)C(Cc2cc3cc(N(C)C)ccc3[nH]2)NC1=O (stereo not given),2.02
3,CC1NC(=O)C(Cc2cc3cc([N+](=O)[O-])ccc3[nH]2)NC1=O (stereo not given),1.61
4,CC1NC(=O)C(Cc2cc3cc(Cl)ccc3[nH]2)NC1=O (stereo not given),0.7
5,Cc1ccc2[nH]c(CC3NC(=O)C(C)NC3=O)cc2c1 (stereo not given),1.04
6,Cc1ccc2cc(CC3NC(=O)C(C)NC3=O)[nH]c2c1 (stereo not given),1.12
7,COc1ccc2c(c1)c(CC(=O)O)c(C)n2C(=O)c1ccc(Cl)cc1 [INDOMETHACIN],1.05
8,CC1NC(=O)C(Cc2cc3ccc(F)cc3[nH]2)NC1=O (stereo not given),0.69
9,CC1NC(=O)C(Cc2cc3cc(Cl)c(Cl)cc3[nH]2)NC1=O (stereo not given),0.79
10,CC1NC(=O)C(Cc2cc3ccc(N(C)C)cc3[nH]2)NC1=O (stereo not given),2.47
11,Cc1cc2cc(CC3NC(=O)C(C)NC3=O)[nH]c2cc1C (stereo not given),2.83
12,CC1NC(=O)C(Cc2cc3cc(F)ccc3[nH]2)NC1=O (stereo not given),0.61
13,COc1ccc2cc(CC3NC(=O)C(C)NC3=O)[nH]c2c1 (stereo not given),1.5
14,CC1NC(=O)C(Cc2cc3ccccc3[nH]2)NC1=O (stereo not given),2.4
15,COc1cc2cc(CC3NC(=O)C(C)NC3=O)[nH]c2cc1OC (stereo not given),3.03
16,CC1NC(=O)C(Cc2cc3cc(Br)ccc3[nH]2)NC1=O (stereo not given),1.42
17,CC1NC(=O)C(Cc2cc3ccc(Cl)cc3[nH]2)NC1=O (stereo not given),0.89
18,CC1NC(=O)C(Cc2cc3ccc(Br)cc3[nH]2)NC1=O (stereo not given),1.72
19,CC1NC(=O)C(Cc2cc3cc(C(F)(F)F)ccc3[nH]2)NC1=O (stereo not given),0.45
